The assay deals with PTLD-like EBV+ B cell lines. Description: in vitro cell growth inhibition (3H-thymidine incorporation). As to conditions: for degree of inhibition of growth: 0-10 nanomolar. The format is cell-based, human. The text has this: Most cell lines used in this study were lymphoblastoid B-cell lines obtained by in vitro infection with EBV of peripheral blood mononuclear cells (PBMC). Cell lines A1 and A2D6 were obtained from normal, healthy individuals. Cell lines 15A and 20A were obtained from two different patients with a low grade B-cell lymphoma with monoclonal cold agglutinins (Silberstein et al., 1991, Blood 78:2372-2386). Both lines secreted cold agglutinins with the same specificity as the cold agglutinins found in the patient's serum (Silberstein et al., 1991, Blood 78:2372-2386). […] LCL B-cell line was obtained from a patient with a progressive cutaneous T-cell lymphoproliferative disorder (Zhang et al., 1996, Proc. Natl. Acad. Sci. USA 93:9148-9153). BC-1 is derived from a peritoneal effusion B-cell lymphoma (PEL) and, in addition to EBV, harbors […] virus (Cesarman et al., 1995, Blood 86:2708-2714). The other 3 cell lines used as controls in the in vitro growth inhibition assay were HTLV-I (+) T-cell lines ATL-2 (Maeda et al., 1985, Exp. Med. 162:2169-2174); C10MJ2 (Popovic et al., 1983, Science 219: 856-859); and HUT102B (Poiescz, 1980, Proc. Natl. Acad. Sci. USA 77:7415-7419; Bunn, et al, 1996, J. Cell. Biochem. Suppl 24:12-23) derived from patients with adult T-cell leukemia/lymphoma (ATLL). They were shown by us to be non-responsive to SDZ RAD and the related, immunosuppressive macrolide, rapamycin (Zhang et al., 1999, Leukemia Res. 23:373-384). All cell lines were maintained in humidified incubators at 37° C. in an atmosphere containing 5% CO2 in standard medium: RPMI Medium 1640 (Gibco BRL, Grand Island, N.Y.) supplemented with 10% (v/v) heat inactivated fetal bovine serum (BioWhittaker, Walkersville, Md.), 1% penicillin/streptomycin/fungizone mixture (Gibco BRL), and 2 millimolar L-glutamine (Gibco BRL).
An assay to assess inhibition of in vitro cell growth by SDZ RAD was performed as described (Zhang et al., 1999, Leukemia Res. 23:373-384; Zhang et al., 1996, Proc. Natl. Acad. Sci. USA 93:9148-9153). Briefly, cell lines were cultured for 32 hours in triplicate at 2×10^4 cells per well in the presence of various concentrations of SDZ RAD (Novartis Pharma, Basel). After pulsing the cells with 0.5 microcurie ^3H-thymidine (New England Nuclear, Boston, Mass.) and culturing the cells for the next 18 hours, isotope incorporation into the cells was measured. The results of proliferation assays were expressed as the mean radioactivity of triplicate cultures. Standard deviation within the triplicates was <15%.
In order to determine whether SDZ RAD can inhibit proliferation of cells mimicking PTLDs, 6 different EBV^+ B cell lines were cultured in vitro in the presence of the drug at various concentrations. […]

Structures are written as SMILES.

Take `CO[C@H]1C[C@@H]2CC[C@@H](C)[C@@](O)(O2)C(=O)C(=O)N2CCCC[C@H]2C(=O)O[C@H]([C@H](C)C[C@@H]2CC[C@@H](OCCO)[C@H](OC)C2)CC(=O)[C@H](C)/C=C(\C)[C@@H](O)[C@@H](OC)C(=O)[C@H](C)C[C@H](C)/C=C/C=C/C=C/1C` [SDZ RAD, 40-O-(2-hydroxy)ethyl-rapamycin]: where the note is “1 nanomolar, all EBV+ B cell lines, 32 hours culture then 18 hours 3H-thymidine pulse”, the inhibition of growth was 60-95%. Further, where the note is “all PTLD-like EBV+ B cell lines”, the “sensitivity of cell lines to the drug” value is “very sensitive”. Besides, the “degree of inhibition of growth” value reads like this: (cell lines obtained from normal B cells) 90-100%; (lines derived from patients with B-cell lymphomas (15A, 20A and BC-1)) 80-90%.

Values taken from patent US8778961B2, “O-methylated rapamycin derivatives for alleviation and inhibition of lymphoproliferative disorders” (The Trustees of the University of Pennsylvania, priority 2000, dated 2014).
